Read-outs that look alike come from different tables or passages of the source.
Tests used:
[1] = system: drug induced ataxia mice; test: Effect on drug induced (cytosine arabinoside) ataxia mice, open-field test; format: in vivo; conditions: for Falling Index (falling score/movement score) / Movement Score: 30 min after administration, observed 30 min, mean ± standard error
Method: Ataxia mice prepared by repeated administration of cytosine arabinoside 50 mg/kg into male mice, 1, 2 and 3-day old, respectively, were used at 6-7-week old in the experiments (Simada, M. et al. Arch. Neurol., 32, 555-559, 1975 and Matsui, K. et al. Exp. Anim., 32, 13-19, 1983).
Improving effects of drugs on ataxia were evaluated according to the methods of Yamamoto et al. (Yamamoto and Shimizu, Eur. J. Pharmacol. 1.66, 295-297, 1989) and Matsui et al. (Matsui et al. Eur. J. Pharmacol., 254, 295-297, 1994; Neurosci. Lett., 212, 115-118, 1996) as follows.
(§1) The open-field apparatus with a 70 cm square filed surrounded by a 15 cm high wall was used. The floor of the field was marked out into 49 equal grids (each grid 10 cm×10 cm). At 30 minutes after administration of drug intraperitoneally into mice, each mouse was placed in the field and was monitored for behavior for 30 minutes. Observed items were as follows. Numbers of crossing lines of the grids by mouse were set as “movement score” and numbers of slipping the hindlimbs were set as “falling score”. Each score was measured simultaneously. Ratio of both scores (falling score/movement score) is expressed as “falling index”.
Drugs used were D-serine ethyl ester, 10, 50 and 250 mg/kg, respectively, D-cycloserine, 2, 10 and 50 mg/kg, respectively, and L-serine ethyl ester, 250 mg/kg. Physiological saline was used as control. Each drug and saline were administered intraperitoneally.

[2] = mouse, in vivo, cited from earlier work
[3] = system: genetic mutant ataxia mice, reeler mice; test: Effect on genetic mutant ataxia mice (reeler mice), open-field test; format: in vivo; conditions: 250 mg/kg i.p., mean ± standard error
Method: as §1
Genetic mutant ataxia mice, reeler mice (Heckroth, J. A. et al. J. Comp. Neurol., 279, 546-555, 1989 and Hamburgh, Dev. Biol., 8, 165-185, 1963) were purchased from Jackson Laboratory (Bar Harbor, Me., USA). Homozygotes were obtained by mating of heterozygote pairs. The homozygote male mice, 6-7 weeks old, were used for the experiments.
Experimental method for evaluation of ataxia was performed as same as in example 1. In the drug administered group, D-serine ethyl ester 250 mg/kg was administered intraperitoneally. For control group, physiological saline was administered.

[4] = 10 mg/kg i.p., listed as D-Cycloserine
[5] = 50 mg/kg i.p., listed as D-Cycloserine
[6] = 50 mg/kg i.p., listed as D-Serine Ethyl ester
[7] = 250 mg/kg i.p., listed as D-Serine Ethyl ester

## N[C@@H]1CON=C1O [D-cycloserine]
[1]; 2 mg/kg i.p.
  Falling Index (falling score/movement score): 0.80 ± 0.07
  Movement Score: 117 ± 54
[1]; 10 mg/kg i.p.
  Falling Index (falling score/movement score): Significant decrease
  Movement Score: no significant effect
[1]; [4]
  Falling Index (falling score/movement score): 0.69 ± 0.09
  Movement Score: 194 ± 71
[1]; 50 mg/kg i.p.
  Falling Index (falling score/movement score): Significant decrease
  Movement Score: no significant effect
[1]; [5]
  Falling Index (falling score/movement score): 0.62 ± 0.04
  Movement Score: 286 ± 98
[1]; below 50 mg/kg (i.p.) in mice
  improved action on ataxia: dose dependent manner
[2]; ip
  LD50: approx. 2,900 mg/kg
[2]; iv
  LD50: approx. 1,800 mg/kg
[2]; po
  LD50: approx. 5,300 mg/kg
[2]; sc
  LD50: approx. 2,800 mg/kg

## CCOC(=O)[C@H](N)CO [D-serine ethyl ester]
[1]; 10 mg/kg i.p.
  Falling Index (falling score/movement score): 0.88 ± 0.09
  Movement Score: 386 ± 113
[1]; 50 mg/kg i.p.
  Falling Index (falling score/movement score): Significant decrease
  Movement Score: no significant effect
[1]; [6]
  Falling Index (falling score/movement score): 0.66 ± 0.08
  Movement Score: 366 ± 96
[1]; 250 mg/kg i.p.
  Falling Index (falling score/movement score): Significant decrease
  Movement Score: no significant effect
[1]; [7]
  Falling Index (falling score/movement score): 0.56 ± 0.06
  Movement Score: 412 ± 99
[3]
  Falling Index (falling score/movement score): Improved effect on ataxia
  Movement Score: No effect
[3]; listed as D-Serine Ethyl ester
  Falling Index (falling score/movement score): 0.24 ± 0.05
  Movement Score: 232 ± 66

## CCOC(=O)[C@@H](N)CO [L-serine ethyl ester]
[1]; 250 mg/kg i.p.
  Falling Index (falling score/movement score): No improved action on ataxia
  Movement Score: 129 ± 27
[1]; 250 mg/kg i.p., listed as L-Serine Ethyl ester
  Falling Index (falling score/movement score): 0.80 ± 0.06
